Counter-ions that a name gives are not always drawn.
Test system: healthy rat plasma glyoxylate concentrations
Experiment: Rats treated with anti-diabetic drug metformin: 28-day oral gavage study, plasma metabolite profiling of glyoxylate
Format: in vivo
Details: for Ratio treatment/control of plasma glyoxylate: fasted plasma
Procedure: Two groups of each 5 male and female rats was dosed once daily with the indicated compounds with a different dose per group (see below) over 28 days.
Each dose group in the studies consisted of five rats per sex. Additional groups of each 15 male and 15 female animals served as controls. Before starting the treatment period, animals, which were 62-64 days old when supplied, were acclimatized to the housing and environmental conditions for 7 days. All animals of the animal population were kept under the same constant temperature (20-24±3° C.) and the same constant humidity (30-70%). The animals of the animal population were fed ad libitum. The food to be used was essentially free of chemical or microbial contaminants. Drinking water was also offered ad libitum. Accordingly, the water was free of chemical and microbial contaminants as laid down in the European Drinking Water Directive 98/83/EG. The illumination period was 12 hours light followed by 12 hours darkness (12 hours light, from 6:00 to 18:00, and 12 hours darkness, from 18:00 to 6:00). The studies were performed in an AAALAC-approved laboratory in accordance with the German Animal Welfare Act and the European Council Directive 86/609/EE. The test system was arranged according to the OECD 407 guideline for the testing of chemicals for repeated dose 28-day oral toxicity study in rodents. The test substance was dosed and administered as follows:
Metformin hydrochloride was administered by gavage (high dose group at 1 g/kg body weight, low dose group at 0.2 g/kg body weight), in drinking water containing 0.5% Carboxymethyl cellulose (Tylose CB30000) (administration volume: 10 ml/kg body weight).
In the morning of day 7, 14, and 28, blood was taken from the retroorbital venous plexus from fasted anaesthetized animals. From each animal, 1 ml of blood was collected with EDTA as anticoagulant. The samples were centrifuged for generation of plasma. All plasma samples were covered with a N2 atmosphere and then stored at −80° C. until analysis.
For mass spectrometry-based metabolite profiling analyses plasma samples were extracted and a polar and a non-polar (lipid) fraction was obtained. For GC-MS analysis, the non-polar fraction was treated with methanol under acidic conditions to yield the fatty acid methyl esters. Both fractions were further derivatised with O-methyl-hydroxyamine hydrochloride and pyridine to convert Oxo-groups to O-methyloximes and subsequently with a silylating agent before analysis. In LC-MS analysis, both fractions were reconstituted in appropriate solvent mixtures. HPLC was performed by gradient elution on reversed phase separation columns. Mass spectrometric detection which allows target and high sensitivity MRM (Multiple Reaction Monitoring) profiling in parallel to a full screen analysis was applied as described in WO2003073464.
Following comprehensive analytical validation steps, the data for each analyte were normalized against data from pool samples. These samples were run in parallel through the whole process to account for process variability. The significance of treatment group values specific for sex, treatment duration and metabolite was determined by comparing means of the treated groups to the means of the respective untreated control groups using WELCH-test and quantified with treatment ratios versus control and p-values.

SMILES: CN(C)C(=N)NC(=N)N [Metformin hydrochloride, N,N-dimethylimidodicarbonimidic diamide]
- Ratio treatment/control of plasma glyoxylate (High Dose 1 g/kg body weight by gavage once daily, female rats, day 7 (f7)): 0.82
- Ratio treatment/control of plasma glyoxylate (High Dose 1 g/kg body weight by gavage once daily, female rats, day 14 (f14)): 0.58
- Ratio treatment/control of plasma glyoxylate (High Dose 1 g/kg body weight by gavage once daily, female rats, day 28 (f28)): 0.52
- Ratio treatment/control of plasma glyoxylate (High Dose 1 g/kg body weight by gavage once daily, male rats, day 7 (m7)): 0.22
- Ratio treatment/control of plasma glyoxylate (High Dose 1 g/kg body weight by gavage once daily, male rats, day 14 (m14)): 0.29
- Ratio treatment/control of plasma glyoxylate (High Dose 1 g/kg body weight by gavage once daily, male rats, day 28 (m28)): 0.58
- Ratio treatment/control of plasma glyoxylate (Low Dose 0.2 g/kg body weight by gavage once daily, female rats, day 7 (f7)): 1.01
- Ratio treatment/control of plasma glyoxylate (Low Dose 0.2 g/kg body weight by gavage once daily, female rats, day 14 (f14)): 0.72
- Ratio treatment/control of plasma glyoxylate (Low Dose 0.2 g/kg body weight by gavage once daily, female rats, day 28 (f28)): 0.64
- Ratio treatment/control of plasma glyoxylate (Low Dose 0.2 g/kg body weight by gavage once daily, male rats, day 7 (m7)): 0.59
- Ratio treatment/control of plasma glyoxylate (Low Dose 0.2 g/kg body weight by gavage once daily, male rats, day 14 (m14)): 0.65
- Ratio treatment/control of plasma glyoxylate (Low Dose 0.2 g/kg body weight by gavage once daily, male rats, day 28 (m28)): 0.44
- Effect on glyoxylate concentrations in rat model system (summary in words) (rat model system, summary of Table 8): capable of reducing glyoxylate concentrations
